Values quoted from earlier work, collected in the PKSmart pharmacokinetics tables (Seal et al. 2025).

Experiments:
[1] = Lombardo et al. 2013, J Clin Pharmacol 53:178, doi 10.1177/0091270012440282; settings: for fraction unbound: plasma; for Vd / clearance: in vivo, iv
[2] = Lombardo, Berellini, Obach 2018, Drug Metab Dispos 46:1466, doi 10.1124/dmd.118.082966; settings: human; for fraction unbound: plasma; for MRT / Vd / clearance / half-life: in vivo, iv

| SMILES | fraction unbound ([1]; rat) | fraction unbound [2] | Vd ([1]; dog) [L/kg] | clearance ([1]; dog) [L/h/kg] | fraction unbound ([1]; dog) | Vd ([1]; monkey) [L/kg] | clearance ([1]; monkey) [L/h/kg] | fraction unbound ([1]; monkey) | Vd ([1]; rat) [L/kg] | clearance ([1]; rat) [L/h/kg] | MRT [2] [h] | Vd [2] [L/kg] | clearance [2] [L/h/kg] | half-life [2] [h] |
| --- | --- | --- | --- | --- | --- | --- | --- | --- | --- | --- | --- | --- | --- | --- |
| CN(c1nc2ccccc2s1)C1CCN(C[C@H](O)COc2ccc(F)c(F)c2)CC1 | 0.008 | 0.003 | – | – | – | – | – | – | – | – | – | – | – | – |
| O=C1CN=C(c2ccccc2Cl)c2cc([N+](=O)[O-])ccc2N1 | – | – | 2.49 | 1.44 | 0.18 | 6.8 | 0.858 | 0.121 | 3.1 | 4.23 | 55 | 2.9 | 0.0528 | 38 |
| CCOc1ccccc1OCCN[C@H](C)Cc1ccc(OC)c(S(N)(=O)=O)c1 | 0.24 | – | 1.74 | 1.16 | 0.1 | – | – | – | 3.25 | 4.93 | 5.6 | 0.21 | 0.0372 | 6.8 |
| CON=C(C(=O)NC1C(=O)N2C(C(=O)O)=C(CSc3nnnn3C)CS[C@H]12)c1csc(N)n1 (stereo not given in full) | – | 0.31 | 0.3 | 0.535 | – | – | – | – | 0.28 | 0.448 | 0.77 | 0.2 | 0.219 | 0.89 |
| NC(C(=O)O)[C@@H]1CC(Cl)=NO1 (stereo not given in full) | – | – | 0.58 | 0.084 | – | 0.61 | 0.138 | – | 0.74 | 0.384 | 12 | 0.5 | 0.0414 | 9.9 |
| Nc1cc(-c2ccncc2)c[nH]c1=O | – | 0.89 | 1.2 | 0.36 | – | – | – | – | – | – | 2.4 | 1.3 | 0.534 | 2 |
| CN1CC[C@]23c4c5ccc(O)c4OC2C(=O)CC[C@H]3[C@H]1C5 (stereo not given in full) | – | – | 5.8 | 4.26 | – | – | – | – | – | – | – | – | – | 2.3 |
| Cc1cccc(C)c1NC(=O)C(C)N (stereo not given) | – | – | – | – | – | – | – | – | 5 | 2.27 | 14 | 1.8 | 0.132 | 12 |
| CC1=C(C(=O)O)N2C(=O)C(NC(=O)C(N)C3=CCC=CC3)[C@H]2SC1 (stereo not given in full) | – | – | – | – | – | – | – | – | 1.1 | 1.3 | 1.1 | 0.21 | 0.198 | 0.85 |
| C[C@]12C=CC(=O)C=C1CC[C@@H]1C2C(=O)C[C@@]2(C)[C@H]1CC[C@]2(O)C(=O)CO (stereo not given in full) | 0.41 | – | 2.3 | 1.49 | 0.5 | 1.7 | 0.588 | 0.261 | 1.3 | 9.28 | 3.8 | 0.57 | – | 2.9 |
| C[C@@H]1CN(c2c(F)c(N)c3c(=O)c(C(=O)O)cn(C4CC4)c3c2F)C[C@H](C)N1 | 0.5 | – | – | – | – | – | – | – | 3.5 | 1.18 | 24 | 3.9 | 0.162 | 20 |
| CC(C)(ON=C(C(=O)NC1C(=O)N2C(C(=O)O)=C(C[n+]3ccccc3)CS[C@H]12)c1csc(N)n1)C(=O)[O-] (stereo not given in full) | – | 0.79 | 0.21 | 0.192 | 1 | 0.26 | 0.126 | 0.945 | 0.3 | 0.522 | 2.2 | 0.31 | 0.144 | 1.8 |
| CO[C@@]1(NC(O)=c2sc(=C(C(N)=O)C(=O)O)s2)C(=O)N2C(C(=O)O)=C(CSc3nnnn3C)CS[C@@H]21 | 0.7 | 0.15 | 0.25 | 0.24 | 0.6 | 0.17 | 0.102 | 0.13 | 0.25 | 0.767 | 5.2 | 0.13 | 0.0252 | 4.5 |
| CCOC(=O)C1(c2ccccc2)CCN(C)CC1 | – | 0.42 | 2.4 | 2.58 | – | – | – | – | 9.2 | 14.7 | 6.4 | 2.3 | 0.294 | 7.9 |
| NC12CC3CC(CC(C3)C1)C2 | 0.52 | – | – | – | – | – | – | – | 6.4 | 1.14 | 23 | 6.6 | 0.288 | 16 |
| CN1CCC[C@H]1c1cccnc1 | – | – | 3.3 | 2.52 | – | – | – | – | 2.77 | 2.78 | 2.4 | 2.6 | 1.08 | 2 |
| CC[C@@]1(O)C(=O)OCc2c1cc1n(c2=O)Cc2cc3c(CN(C)C)c(O)ccc3nc2-1 | 0.747 | 0.65 | – | – | – | – | – | 0.8 | – | – | – | – | – | – |
| O=C(O)P(=O)(O)O | – | – | 0.65 | 0.217 | – | – | – | – | – | – | – | 0.5 | 0.126 | 4.7 |
| COc1cc2nc(N3CCN(C(=O)C4COc5ccccc5O4)CC3)nc(N)c2cc1OC (stereo not given) | 0.03 | – | 5 | 0.78 | 0.0653 | – | – | – | 3 | – | 14 | 1.3 | – | 10 |
| CO[C@@]1(NC(=O)Cc2cccs2)C(=O)N2C(C(=O)O)=C(COC(N)=O)CS[C@@H]21 | – | 0.73 | 0.6 | 0.66 | – | – | – | – | – | – | 0.79 | 0.17 | 0.216 | 0.81 |
| CCCN(CCC)S(=O)(=O)c1ccc(C(=O)O)cc1 | – | – | 0.46 | 0.0204 | 0.15 | – | – | – | – | – | 8.7 | 0.13 | 0.015 | 5.9 |
